Results from patent US4055715A, “Method of producing 1-N-[L-(-)-α-hydroxy-γ-aminobutyryl]XK-62-2” (Abbott Laboratories, priority 1974, dated 1977).
Values after ≈ are worked out from the molar mass of the structure shown. Like-named read-outs stand apart in the source and are kept apart here.

Columns and labels:
[1] = test system: Pseudomonas aeruginosa BMH 1; assay: Agar-dilution MIC, pH 8.0 (Table 1); assay type: cell-based
[2] = test system: Staphylococcus aureus ATCC 6538P; assay: Agar-dilution MIC, pH 8.0 (Table 1); assay type: cell-based; conditions: ATCC6538P
[3] = test system: Bacillus subtilis No. 10707; assay: Agar-dilution MIC, pH 8.0 (Table 1); assay type: cell-based
[4] = test system: Proteus vulgaris ATCC 6897; assay: microbe, parasite or virus in culture; assay type: cell-based
[5] = test system: Salmonella typhosa ATCC 9992; assay: Agar-dilution MIC, pH 8.0 (Table 1); assay type: cell-based; conditions: Salmonella enterica, pH 8, read-out: Minimum Inhibitory Concentration
[6] = test system: Krebsiella pneumoniae ATCC 10031; assay: Agar-dilution MIC, pH 8.0 (Table 1); assay type: cell-based; conditions: Klebsiella pneumoniae
Escherichia coli ATCC 26 = assay: Agar-dilution MIC, pH 8.0 (Table 1); assay type: cell-based
Escherichia coli KY 8327 [7] = assay: Agar-dilution MIC, pH 8.0 (Table 1); assay type: cell-based; conditions: for MIC: Escherichia coli, KY8327, E. coli KY 8327, produces gentamicin adenyltransferase, agar-dilution, pH 8.0, read-out: Minimum Inhibitory Concentration
From the text: (§1) The former bacterium inactivates kanamycins and gentamicins by adenylation, and the latter inactivates gentamicins by acetylation.

Escherichia coli KY 8348 [8] = assay: Agar-dilution MIC, pH 8.0 (Table 1); assay type: cell-based; conditions: for MIC: Escherichia coli, KY8348, E. coli KY 8348, produces gentamicin acetyltransferase Type I, agar-dilution, pH 8.0, read-out: Minimum Inhibitory Concentration
From the text: as §1

[9] = test system: Staphylococcus aureus 209 P; assay: Agar dilution MIC, pH 7.2 (Table 2); assay type: cell-based; conditions: pH 7.2, read-out: Minimum Inhibitory Concentration
[10] = test system: Staphylococcus aureus Smith; assay: Agar dilution MIC, pH 7.2 (Table 2); assay type: cell-based; conditions: pH 7.2, read-out: Minimum Inhibitory Concentration
[11] = test system: Bacillus subtilis ATCC 6633; assay: Agar dilution MIC, pH 7.2 (Table 2); assay type: cell-based
Sarcina lutea ATCC 9341 = assay: Agar dilution MIC, pH 7.2 (Table 2); assay type: cell-based; conditions: Micrococcus luteus
Escherichia coli T-2 = assay: Agar dilution MIC, pH 7.2 (Table 2); assay type: cell-based
Escherichia coli T-5 = assay: Agar dilution MIC, pH 7.2 (Table 2); assay type: cell-based
Escherichia coli KY 8327 [12] = assay: Agar dilution MIC, pH 7.2 (Table 2); assay type: cell-based; conditions: KY8327, E. coli KY 8327, read-out: Minimum Inhibitory Concentration
Escherichia coli KY 8321 = assay: Agar dilution MIC, pH 7.2 (Table 2); assay type: cell-based
Escherichia coli KY 8348 [13] = assay: Agar dilution MIC, pH 7.2 (Table 2); assay type: cell-based; conditions: KY8348, E. coli KY 8348, produces gentamicin acetyltransferase Type I, read-out: Minimum Inhibitory Concentration
Escherichia coli KY 8349 = assay: Agar dilution MIC, pH 7.2 (Table 2); assay type: cell-based; conditions: KY8349, E. coli KY 8349, produces neomycin-kanamycin phosphotransferase Type I, read-out: Minimum Inhibitory Concentration
[14] = test system: Pseudomonas aeruginosa BMH 1; assay: Agar dilution MIC, pH 7.2 (Table 2); assay type: cell-based
[15] = test system: Pseudomonas aeruginosa KY 8510; assay: Agar dilution MIC, pH 7.2 (Table 2); assay type: cell-based
[16] = test system: Pseudomonas aeruginosa KY 8511; assay: Agar dilution MIC, pH 7.2 (Table 2); assay type: cell-based
[17] = test system: Pseudomonas aeruginosa KY 8516; assay: Agar dilution MIC, pH 7.2 (Table 2); assay type: cell-based
Providencia sp. 164 = assay: Agar dilution MIC, pH 7.2 (Table 2); assay type: cell-based; conditions: Providencia sp. 164, produces gentamicin acetyltransferase Type II, read-out: Minimum Inhibitory Concentration
[18] = test system: Klebsiella pneumoniae No. 8045; assay: Agar dilution MIC, pH 7.2 (Table 2); assay type: cell-based
Proteus mirabilis 1287 = assay: Agar dilution MIC, pH 7.2 (Table 2); assay type: cell-based
Proteus vulgaris 6897 = assay: Agar dilution MIC, pH 7.2 (Table 2); assay type: cell-based
[19] = Acute toxicity in mice, intravenous injection; conditions: mouse, in vivo
[20] = test system: strains of the aforementioned resistant bacteria; assay: Protection tests against infections induced by resistant bacteria; assay type: in vivo
[21] = test system: Escherichia coli having R factors; assay: Antibacterial activity against R factor strains; assay type: cell-based; conditions: E. coli having R factors, resistant to known aminoglycoside antibiotics
[22] = test system: Shigella sonnei ATCC 9290; assay: microbe, parasite or virus in culture; assay type: cell-based; conditions: ATCC9290, pH 8, read-out: Minimum Inhibitory Concentration
[23] = test system: Pseudomonas aeruginosa KY 8512; assay: Agar dilution MIC, pH 7.2 (Table 2); assay type: cell-based; conditions: KY8512, pH 7.2, read-out: Minimum Inhibitory Concentration
Proteus morganii KY 4298 = assay: Agar dilution MIC, pH 7.2 (Table 2); assay type: cell-based; conditions: Morganella morganii, KY4298, pH 7.2, read-out: Minimum Inhibitory Concentration

CNC[C@@H]1CC[C@@H](N)[C@@H](O[C@H]2[C@H](O)[C@@H](O[C@H]3OC[C@](C)(O)[C@H](NC)[C@H]3O)[C@H](NC(=O)[C@@H](O)CCN)C[C@@H]2N)O1 [Compound IV, 1-N-[L-(-)-α-hydroxy-γ-aminobutyryl] XK-62-2]
MIC ([1]; BMH1, P. aeruginosa BMH 1, agar-dilution, pH 8.0, read-out: Minimum Inhibitory Concentration): 2.08 mg/L (≈ 3.68 µM) | MIC ([2]; S. aureus ATCC 6538P, agar-dilution, pH 8.0, read-out: Minimum Inhibitory Concentration): 0.016 mg/L (≈ 0.0283 µM) | MIC ([3]; B. subtilis No. 10707, agar-dilution, pH 8.0, read-out: Minimum Inhibitory Concentration): 0.004 mg/L (≈ 0.00708 µM) | MIC ([4]; ATCC6897, P. vulgaris ATCC 6897, agar-dilution, pH 8.0, read-out: Minimum Inhibitory Concentration): 0.065 mg/L (≈ 0.115 µM) | MIC [5]: 0.008 mg/L (≈ 0.0142 µM) | MIC ([6]; ATCC10031, K. pneumoniae ATCC 10031, agar-dilution, pH 8.0, read-out: Minimum Inhibitory Concentration): 0.008 mg/L (≈ 0.0142 µM) | MIC (Escherichia coli ATCC 26; ATCC26, E. coli ATCC 26, agar-dilution, pH 8.0, read-out: Minimum Inhibitory Concentration): 0.004 mg/L (≈ 0.00708 µM) | antibacterial activity (in words) (Escherichia coli KY 8327 [7]; E. coli KY 8327, from Table 1): strong anti-bacterial activity | MIC (Escherichia coli KY 8327 [7]): 0.016 mg/L (≈ 0.0283 µM) | antibacterial activity (in words) (Escherichia coli KY 8348 [8]; E. coli KY 8348, from Table 1): strong anti-bacterial activity | MIC (Escherichia coli KY 8348 [8]): 0.004 mg/L (≈ 0.00708 µM) | MIC ([9]; S. aureus 209 P, agar dilution): 0.1 mg/L (≈ 0.177 µM) | MIC ([10]; S. aureus Smith, agar dilution): 0.1 mg/L (≈ 0.177 µM) | MIC ([11]; ATCC6633, B. subtilis ATCC 6633, agar dilution, pH 7.2, read-out: Minimum Inhibitory Concentration): 0.1 mg/L (≈ 0.177 µM) | MIC (Sarcina lutea ATCC 9341; ATCC9341, Sarcina lutea ATCC 9341, agar dilution, pH 7.2, read-out: Minimum Inhibitory Concentration): 0.4 mg/L (≈ 0.708 µM) | MIC (Escherichia coli T-2; T2, E. coli T-2, agar dilution, pH 7.2, read-out: Minimum Inhibitory Concentration): 0.4 mg/L (≈ 0.708 µM) | MIC (Escherichia coli T-5; T5, E. coli T-5, agar dilution, pH 7.2, read-out: Minimum Inhibitory Concentration): 0.4 mg/L (≈ 0.708 µM) | MIC (Escherichia coli KY 8327 [12]): 0.2 mg/L (≈ 0.354 µM) | MIC (Escherichia coli KY 8321; KY8321, E. coli KY 8321, produces gentamicin adenyltransferase and neomycin-kanamycin phosphotransferase Type II, agar dilution, pH 7.2, read-out: Minimum Inhibitory Concentration): 0.2 mg/L (≈ 0.354 µM) | MIC (Escherichia coli KY 8348 [13]): 0.1 mg/L (≈ 0.177 µM) | MIC (Escherichia coli KY 8349): 0.2 mg/L (≈ 0.354 µM) | MIC ([14]; BMH1, P. aeruginosa BMH 1, agar dilution, pH 7.2, read-out: Minimum Inhibitory Concentration): 1.56 mg/L (≈ 2.76 µM) | MIC ([15]; KY8510, P. aeruginosa KY 8510, produces kanamycin acetyltransferase, agar dilution, pH 7.2, read-out: Minimum Inhibitory Concentration): 3.12 mg/L (≈ 5.53 µM) | MIC ([16]; KY8511, P. aeruginosa KY 8511, produces gentamicin acetyltransferase Type I and neomycin-kanamycin phosphotransferase Type I, agar dilution, pH 7.2, read-out: Minimum Inhibitory Concentration): 3.12 mg/L (≈ 5.53 µM) | MIC ([17]; KY8516, P. aeruginosa KY 8516, probably produces kanamycin acetyltransferase, agar dilution, pH 7.2, read-out: Minimum Inhibitory Concentration): 3.12 mg/L (≈ 5.53 µM) | MIC (Providencia sp. 164): 12.5 mg/L (≈ 22.1 µM) | MIC ([18]; K. pneumoniae No. 8045, agar dilution, pH 7.2, read-out: Minimum Inhibitory Concentration): 0.2 mg/L (≈ 0.354 µM) | MIC (Proteus mirabilis 1287; Proteus mirabilis, P. mirabilis 1287, agar dilution, pH 7.2, read-out: Minimum Inhibitory Concentration): 3.12 mg/L (≈ 5.53 µM) | MIC (Proteus vulgaris 6897; Proteus vulgaris, P. vulgaris 6897, agar dilution, pH 7.2, read-out: Minimum Inhibitory Concentration): 3.12 mg/L (≈ 5.53 µM) | LD50 [19]: 250 mg/kg | antibacterial activity in protection tests ([20]; infections induced by resistant bacteria, versus gentamicin antibiotics and XK-62-2): much higher antibacterial activity than the gentamicin antibiotics and XK-62-2 | retention of the α-hydroxy-γ-aminobutyryl group in vivo ([20]; protection tests, in vivo): maintain the α-hydroxy-γ-aminobutyryl group in vivo | antibacterial activity (in words) [21]: strong anti-bacterial activity

NC[C@H]1O[C@H](O[C@H]2[C@H](O)[C@@H](O[C@H]3O[C@H](CO)[C@@H](O)[C@H](N)[C@H]3O)[C@H](N)C[C@@H]2N)[C@H](O)[C@@H](O)[C@@H]1O [Kanamycin A, kanamycin A]
MIC ([1]; BMH1, pH 8, read-out: Minimum Inhibitory Concentration): 5.2 mg/L (≈ 10.7 µM) | MIC ([2]; pH 8, read-out: Minimum Inhibitory Concentration): 0.021 mg/L (≈ 0.0433 µM) | MIC ([3]; NO.10707, pH 8, read-out: Minimum Inhibitory Concentration): 0.021 mg/L (≈ 0.0433 µM) | MIC ([4]; ATCC6897, pH 8, read-out: Minimum Inhibitory Concentration): 0.16 mg/L (≈ 0.33 µM) | MIC [22]: 0.16 mg/L (≈ 0.33 µM) | MIC [5]: 0.088 mg/L (≈ 0.182 µM) | MIC ([6]; ATCC10031, pH 8, read-out: Minimum Inhibitory Concentration): 0.042 mg/L (≈ 0.0867 µM) | MIC (Escherichia coli ATCC 26; ATCC26, pH 8, read-out: Minimum Inhibitory Concentration): 0.16 mg/L (≈ 0.33 µM) | MIC (Escherichia coli KY 8327 [7]): 1.04 mg/L (≈ 2.15 µM) | MIC (Escherichia coli KY 8348 [8]): 0.041 mg/L (≈ 0.0846 µM) | MIC ([9]; 209P): 0.2 mg/L (≈ 0.413 µM) | MIC [10]: 0.2 mg/L (≈ 0.413 µM) | MIC ([11]; ATCC6633, pH 7.2, read-out: Minimum Inhibitory Concentration): 0.2 mg/L (≈ 0.413 µM) | MIC (Sarcina lutea ATCC 9341; ATCC9341, pH 7.2, read-out: Minimum Inhibitory Concentration): 6.25 mg/L (≈ 12.9 µM) | MIC (Escherichia coli T-2; T2, pH 7.2, read-out: Minimum Inhibitory Concentration): 1.56 mg/L (≈ 3.22 µM) | MIC (Escherichia coli T-5; T5, pH 7.2, read-out: Minimum Inhibitory Concentration): 1.56 mg/L (≈ 3.22 µM) | MIC (Escherichia coli KY 8327 [12]): 50 mg/L (≈ 103 µM) | MIC (Escherichia coli KY 8321; KY8321, pH 7.2, read-out: Minimum Inhibitory Concentration): 100 mg/L (≈ 206 µM) | MIC (Escherichia coli KY 8349): > 100 mg/L | MIC ([14]; BMH1, pH 7.2, read-out: Minimum Inhibitory Concentration): 12.5 mg/L (≈ 25.8 µM) | MIC ([15]; KY8510, pH 7.2, read-out: Minimum Inhibitory Concentration): 100 mg/L (≈ 206 µM) | MIC ([16]; KY8511, pH 7.2, read-out: Minimum Inhibitory Concentration): 100 mg/L (≈ 206 µM) | MIC [23]: 12.5 mg/L (≈ 25.8 µM) | MIC ([17]; KY8516, pH 7.2, read-out: Minimum Inhibitory Concentration): > 100 mg/L | MIC (Providencia sp. 164): > 100 mg/L | MIC ([18]; NO.8045, pH 7.2, read-out: Minimum Inhibitory Concentration): 0.4 mg/L (≈ 0.826 µM) | MIC (Proteus mirabilis 1287; Proteus mirabilis, 1287, pH 7.2, read-out: Minimum Inhibitory Concentration): 6.25 mg/L (≈ 12.9 µM) | MIC (Proteus vulgaris 6897; Proteus vulgaris, 6897, pH 7.2, read-out: Minimum Inhibitory Concentration): 3.12 mg/L (≈ 6.44 µM) | MIC (Proteus morganii KY 4298): 1.56 mg/L (≈ 3.22 µM)
